The text below walks through data of patent US10052306B2 (LUC THERAPEUTICS, INC., priority 2013, dated 2018).

As usually defined, the IC50 is the concentration that gives 50% inhibition.

The target of experiment [1] is NR1/NR2B (Homo sapiens (Human), UniProt Q13224). Kind of experiment: Cell assay: FDSS Ca2+ influx inhibition in HEK293 cells expressing NR1/NR2B.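 Further: Fluo-8 Ca2+ signal read on Hamamatsu FDSS 6000 after glutamate, glycine and Ca2+ challenge following 10 min compound preincubation, end/baseline fluorescence ratio compared with MK801 control.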 Particulars: read-out: NR2B NAM IC50; HEK293 cells expressing NR1/NR2B, Ca2+ influx.
The target in experiment [2] is NR1/NR2B (Homo sapiens (Human), UniProt Q05586+Q13224). The experiment is described as above. To be noted: Binned Activity, HEK293 cells expressing NR1/NR2B, Ca2+ influx; binned NR2B NAM IC50.
Chain of NR1/NR2B (Homo sapiens (Human), UniProt Q05586+Q13224) (Q13224 27-1484, other chains not shown): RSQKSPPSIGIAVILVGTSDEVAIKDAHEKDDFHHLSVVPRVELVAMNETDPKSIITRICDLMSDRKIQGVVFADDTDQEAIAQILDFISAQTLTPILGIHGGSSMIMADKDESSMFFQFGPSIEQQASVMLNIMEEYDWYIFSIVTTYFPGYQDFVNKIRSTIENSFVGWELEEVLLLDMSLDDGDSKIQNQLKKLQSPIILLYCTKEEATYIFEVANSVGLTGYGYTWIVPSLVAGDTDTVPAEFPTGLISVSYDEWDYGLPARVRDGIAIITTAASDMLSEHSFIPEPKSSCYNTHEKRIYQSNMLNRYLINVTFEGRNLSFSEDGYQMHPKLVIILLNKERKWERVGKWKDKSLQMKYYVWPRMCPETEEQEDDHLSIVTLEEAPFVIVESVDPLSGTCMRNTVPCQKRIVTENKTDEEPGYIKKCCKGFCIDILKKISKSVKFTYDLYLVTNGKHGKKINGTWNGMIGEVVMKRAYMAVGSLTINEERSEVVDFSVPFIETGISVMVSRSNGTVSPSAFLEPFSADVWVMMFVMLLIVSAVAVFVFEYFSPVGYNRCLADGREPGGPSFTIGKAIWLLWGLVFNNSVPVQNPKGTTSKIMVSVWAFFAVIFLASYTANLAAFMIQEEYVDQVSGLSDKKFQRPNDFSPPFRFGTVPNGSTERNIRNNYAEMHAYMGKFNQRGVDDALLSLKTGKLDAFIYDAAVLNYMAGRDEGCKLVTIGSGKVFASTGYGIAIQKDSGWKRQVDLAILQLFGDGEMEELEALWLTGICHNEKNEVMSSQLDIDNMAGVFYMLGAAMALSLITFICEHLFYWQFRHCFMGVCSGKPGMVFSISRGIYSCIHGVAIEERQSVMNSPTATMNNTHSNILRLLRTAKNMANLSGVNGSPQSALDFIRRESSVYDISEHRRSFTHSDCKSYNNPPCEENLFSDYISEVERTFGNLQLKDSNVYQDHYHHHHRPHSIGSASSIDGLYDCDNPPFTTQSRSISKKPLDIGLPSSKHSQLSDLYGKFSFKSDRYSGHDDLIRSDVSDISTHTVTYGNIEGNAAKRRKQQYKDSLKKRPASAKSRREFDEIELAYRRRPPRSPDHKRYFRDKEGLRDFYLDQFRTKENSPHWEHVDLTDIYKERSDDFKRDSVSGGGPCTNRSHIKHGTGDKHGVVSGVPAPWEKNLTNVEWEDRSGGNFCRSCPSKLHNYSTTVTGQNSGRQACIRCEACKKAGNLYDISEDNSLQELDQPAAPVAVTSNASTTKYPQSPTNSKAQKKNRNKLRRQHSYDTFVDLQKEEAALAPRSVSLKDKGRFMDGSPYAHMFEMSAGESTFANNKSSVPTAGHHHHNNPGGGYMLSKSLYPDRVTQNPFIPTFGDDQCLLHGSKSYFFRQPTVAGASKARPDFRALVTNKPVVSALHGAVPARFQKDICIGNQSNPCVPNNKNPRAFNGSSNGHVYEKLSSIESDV

Chain of NR1/NR2B (Homo sapiens (Human), UniProt Q13224) (Q13224 27-1484, other chains not shown): as above

On to `COc1cccc(NC(=O)N2C[C@H]3CC(Cc4ccccc4)C[C@H]3C2)c1` (stereo partly drawn) [Example 294, (3aR,6aS)-5-benzyl-N-(3-methoxyphenyl) hexahydro-cylcopenta[c]pyrrole-2(1H)-carboxamide], for which the IC50 in experiment [1] was 10 µM; in experiment [2] it was over 10 µM.
For `Oc1ccc([C@@H](O)CN2C[C@@H]3C[C@@](O)(Cc4ccc(F)cc4)C[C@@H]3C2)nc1` [Example 255, (3aR,5S,6aS)-5-(4-fluorobenzyl)-2-((S)-2-hydroxy-2-(5-hydroxypyridin-2-yl)ethyl)octahydrocyclo-penta[c]pyrrol-5-ol] the same measures were 0.024 µM and under 0.1 µM.
Consider `O=C(CN1C[C@@H]2C[C@@](O)(Cc3ccc(F)cc3F)C[C@@H]2C1)c1ccc(O)cn1` [Example 230, 2-((3aR,5r,6aS)-5-(2,4-difluorobenzyl)-5-hydroxyhexahydrocyclo-penta[c]pyrrol-2(1H)-yl)-1-(5-hydroxypyridin-2-yl)ethanone], for which the IC50 in experiment [1] is 2.16 µM; in experiment [2], 1 to 10 µM.
For `Cc1ccccc1[C@]1(O)C[C@H]2CN(c3ccccn3)C[C@H]2C1` [Example 82, 5-(2-methylphenyl)-2-(pyridin-2-yl)-octahydrocyclopenta[c] pyrrol-5-ol] the same measures were 10 µM and over 10 µM.
The corresponding values for `O=C(CN1C[C@H]2C[C@H](Cc3ccccc3)C[C@H]2C1)c1ccc(O)c(F)c1` [Example 308, 2-[(3aR,5R,6aS)-5-benzyl-octahydrocyclopenta[c]pyrrol-2-yl]-1-(3-fluoro-4-hydroxyphenyl) ethan-1-one] are 0.0522 µM and under 0.1 µM.
For `O=C(CN1C[C@@H]2CC(O)(CCc3ccccc3)C[C@@H]2C1)c1ccc(-c2cccc(F)c2)cc1` (stereo partly drawn) [Example 270, 1-[4-(3-fluorophenyl)phenyl]-2-[5-hydroxy-5-(2-phenylethyl)-octahydrocyclopenta[c]pyrrol-2-yl]ethan-1-one] the same measures were 10 µM and over 10 µM.
As for `CO[C@@]1(Cc2ccccc2)C[C@H]2CN(CC(=O)c3ccc(O)cc3)C[C@H]2C1` [Example 174, 2-((3aR,5r,6aS)-5-benzyl-5-methoxyhexahydrocyclo-penta[c]pyrrol-2(1H)-yl)-1-(4-hydroxyphenyl)ethanone], the 50% inhibitory concentration (IC50) is 0.0572 µM in experiment [1] and under 0.1 µM in experiment [2].
The corresponding values for `COc1ccc(C(=O)CN2C[C@@H]3C[C@@](O)(Cc4ccccc4)C[C@@H]3C2)cc1` [Example 132, 2-((3aR,5r,6aS)-5-benzyl-5-hydroxyhexahydrocyclo-penta[c]pyrrol-2(1H)-yl)-1-(4-methoxyphenyl)ethanone] are 10 µM and over 10 µM.
On to `COc1ccc(-c2ccc(C(=O)CN3C[C@@H]4C[C@@](O)(Cc5ccccc5)C[C@@H]4C3)cc2)cc1` [Example 259, 2-((3aR,5r,6aS)-5-benzyl-5-hydroxyhexahydrocyclo-penta[c]pyrrol-2(1H)-yl)-1-(4′-methoxy-[1,1′-biphenyl]-4-yl)ethanone], for which the IC50 in experiment [1] was 10 µM; in experiment [2], over 10 µM.
As to `COc1ccc(C)cc1NC(=O)N1C[C@H]2C[C@@H](c3ccccc3)C[C@H]2C1` [Example 109, N-(2-methoxy-5-methylphenyl)-5-phenyl-octahydrocyclopenta[c] pyrrole-2-carboxamide], the IC50 in experiment [1] is 10 µM; in experiment [2] it was over 10 µM.
The corresponding values for `O=C(CN1C[C@@H]2C[C@@](O)(Cc3ccc(F)cc3F)C[C@@H]2C1)c1ccc(O)cc1` [Example 238, 2-(5-(2,4-difluorobenzyl)-5-hydroxyhexahydrocyclo-penta[c]pyrrol-2(1H)-yl)-1-(4-hydroxyphenyl)ethanone] are 0.0516 µM and under 0.1 µM.
For `Oc1ccc([C@H](O)CN2C[C@@H]3C[C@](O)(Cc4ccccc4)C[C@@H]3C2)cc1` [Example 292, (3aR,5S,6aS)-5-benzyl-2-((S)-2-hydroxy-2-(4-hydroxyphenyl)ethyl) octahydrocyclopenta [c]pyrrol-5-ol] the same measures were 4.71 µM and 1 to 10 µM.
The corresponding values for `COc1cccc(C[C@]2(O)C[C@H]3CN(CC(=O)c4ccc(O)c(F)n4)C[C@H]3C2)c1` [Example 200, 1-(6-fluoro-5-hydroxypyridin-2-yl)-2-((3aR,5r,6aS)-5-hydroxy-5-(3-methoxy-benzyl)hexahydro-cyclopenta[c]pyrrol-2(1H)-yl)ethanone] are 10 µM and over 10 µM.
On to `COc1ccc(C)cc1NC(=O)N1C[C@@H]2C[C@@](O)(Cc3ccccc3)C[C@@H]2C1` [Example 124, (3aR,5r,6aS)-5-benzyl-5-hydroxy-N-(2-methoxy-5-methylphenyl)hexahydro-cyclopenta[c]pyrrole-2(1H)-carboxamide], for which the IC50 in experiment [1] is 10 µM; in experiment [2], over 10 µM.
For `O=C(CN1C[C@@H]2C[C@@](O)(Cc3ccccc3)C[C@@H]2C1)c1ccc(=O)[nH]n1` [Example 157, 6-(2-((3aR,5r,6aS)-5-benzyl-5-hydroxyhexahydrocyclo-penta[c]pyrrol-2(1H)-yl)acetyl)pyridazin-3(2H)-one] the same measures were 10 µM and over 10 µM.
For `CC(=O)Nc1ccc(C(=O)CN2C[C@@H]3C[C@@](O)(Cc4ccccc4)C[C@@H]3C2)cn1` [Example 282, N-(5-(2-((3aR,5r,6aS)-5-benzyl-5-hydroxyhexahydrocyclo-penta[c]pyrrol-2(1H)-yl)acetyl)pyridin-2-yl)acetamide] the same measures were 10 µM and over 10 µM.
For `Oc1ccc([C@H](O)CN2C[C@@H]3C[C@@](O)(Cc4ccccc4)C[C@@H]3C2)cc1F` [Example 156, (3aR,5S,6aS)-5-benzyl-2-((S)-2-(3-fluoro-4-hydroxyphenyl)-2-hydroxyethyl)octahydro-cyclopenta[c]pyrrol-5-ol] the same measures were 0.0305 µM and under 0.1 µM.
For `O=C(CN1C[C@@H]2C[C@@](O)(Cc3ccccc3)C[C@@H]2C1)c1cccc(-c2ccccc2)c1` [Example 268, 1-([1,1′-biphenyl]-3-yl)-2-((3aR,5r,6aS)-5-benzyl-5-hydroxyhexahydrocyclo-penta[c]pyrrol-2(1H)-yl)ethanone], the IC50 in experiment [1] was 10 µM; in experiment [2], over 10 µM.
For `Cc1cccc(N2C[C@@H]3C[C@@](O)(c4ccc(F)cc4)C[C@@H]3C2)n1` [Example 87, 5-(4-fluorophenyl)-2-(6-methylpyridin-2-yl)-octahydrocyclopenta[c] pyrrol-5-ol] the same measures were 10 µM and over 10 µM.
As to `O=C(CN1C[C@@H]2C[C@@](O)(Cc3ccc(F)cc3)C[C@@H]2C1)c1ccc(O)cc1` [Example 134, 2-((3aR,5r,6aS)-5-(4-fluorobenzyl)-5-hydroxyhexahydrocyclo-penta[c]pyrrol-2(1H)-yl)-1-(4-hydroxyphenyl)ethanone], the IC50 was 0.0432 µM in experiment [1] and under 0.1 µM in experiment [2].
For `COc1ccc(NC(=O)N2C[C@@H]3C[C@@](O)(Cc4ccccc4)C[C@@H]3C2)cc1` [Example 126, (3aR,5r,6aS)-5-benzyl-5-hydroxy-N-(4-methoxy-phenyl)hexahydro-cyclopenta[c]pyrrole-2(1H)-carboxamide] the same measures were 10 µM and over 10 µM.
The corresponding values for `O=C(Nc1ccc(Cl)c(C(F)(F)F)c1)N1C[C@H]2C[C@@H](c3ccccc3)C[C@H]2C1` [Example 108, N-[4-chloro-3-(trifluoromethyl)phenyl]-5-phenyl-octahydrocyclopenta[c] pyrrole-2-carboxamide] are 10 µM and over 10 µM.
For `O=C(CN1C[C@@H]2C[C@@](O)(Cc3ccccc3)C[C@@H]2C1)c1ccc(-c2ccccc2)cc1` [Example 258, 1-([1,1′-biphenyl]-4-yl)-2-((3aR,5r,6aS)-5-benzyl-5-hydroxyhexahydrocyclo-penta[c]pyrrol-2(1H)-yl)ethanone] the same measures were 10 µM and over 10 µM.
As to `COc1cccc(-c2cccc(C(=O)CN3C[C@@H]4C[C@@](O)(Cc5ccccc5)C[C@@H]4C3)c2)c1` [Example 273, 2-((3aR,5r,6aS)-5-benzyl-5-hydroxyhexahydrocyclo-penta[c]pyrrol-2(1H)-yl)-1-(3′-methoxy-[1,1′-biphenyl]-3-yl)ethanone], the IC50 in experiment [1] was 10 µM; in experiment [2], over 10 µM.
For `O=C(CN1C[C@H]2C[C@@H](Cc3ccccc3)C[C@H]2C1)c1ccc(O)cc1` [Example 303, 2-[(3aR,5S,6aS)-5-benzyl-octahydrocyclopenta[c]pyrrol-2-yl]-1-(4-hydroxyphenyl)ethan-1-onefluorophenol] the same measures were 0.0388 µM and under 0.1 µM.
The corresponding values for `N#Cc1cccc(NC(=O)N2C[C@@H]3C[C@@](O)(c4ccccc4)C[C@@H]3C2)c1` [Example 26, N-(3-cyanophenyl)-5-hydroxy-5-phenyl-octahydrocyclopenta[c] pyrrole-2-carboxmaide] are 10 µM and over 10 µM.
For `COc1cccc(C[C@]2(O)C[C@H]3CN(CC(=O)c4ccc(O)cc4)C[C@H]3C2)c1` [Example 194, 2-((3aR,5r,6aS)-5-hydroxy-5-(3-meth-oxybenzyl)hexahydro-cyclopenta[c]pyrrol-2(1H)-yl)-1-(4-hydroxyphenyl)ethanone] the same measures were 0.0981 µM and under 0.1 µM.
